{"source": "paper PMC6848086", "about": "“Light on the cell cycle of the non-photosynthetic bacterium Ramlibacter tataouinensis” (Scientific Reports, 2019)", "target": "T1, RtBphP2 (Ramlibacter tataouinensis, UniProt F5Y6C4)", "T1 construct": "gene Rta_28950; full-length; His6 tag (pBAD/HisB); co-expressed with Bradyrhizobium sp; ORS278 heme oxygenase in E. coli TOP10; dimer", "T1 sequence (F5Y6C4 entry or part of it)": "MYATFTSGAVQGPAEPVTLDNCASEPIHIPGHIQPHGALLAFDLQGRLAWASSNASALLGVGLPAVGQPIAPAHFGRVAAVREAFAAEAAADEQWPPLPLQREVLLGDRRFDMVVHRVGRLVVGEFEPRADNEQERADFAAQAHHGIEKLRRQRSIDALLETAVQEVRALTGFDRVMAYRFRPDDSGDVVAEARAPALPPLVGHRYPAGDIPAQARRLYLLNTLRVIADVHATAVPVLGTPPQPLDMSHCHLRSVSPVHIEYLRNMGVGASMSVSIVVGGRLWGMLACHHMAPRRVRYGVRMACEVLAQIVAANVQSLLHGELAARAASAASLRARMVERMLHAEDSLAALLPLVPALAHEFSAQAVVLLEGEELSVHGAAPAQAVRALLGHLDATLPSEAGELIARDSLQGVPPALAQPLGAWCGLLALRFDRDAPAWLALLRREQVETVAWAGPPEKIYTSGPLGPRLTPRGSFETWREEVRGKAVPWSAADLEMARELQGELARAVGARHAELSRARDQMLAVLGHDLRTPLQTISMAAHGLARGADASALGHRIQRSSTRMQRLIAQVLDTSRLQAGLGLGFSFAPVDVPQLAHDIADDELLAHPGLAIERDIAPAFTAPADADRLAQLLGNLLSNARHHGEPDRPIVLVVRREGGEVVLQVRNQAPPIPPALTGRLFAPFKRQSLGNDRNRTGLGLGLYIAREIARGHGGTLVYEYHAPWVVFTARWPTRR", "experiment": "gel electrophoresis with zinc fluorescence; absorption spectra of purified holoprotein", "type": "binding", "settings": "covalent; chromophore formed in E. coli by co-expressed heme oxygenase"}
{"smiles": "C=CC1=C(C)/C(=C/C2=NC(=C\\c3[nH]c(/C=C4\\NC(=O)C(C)=C4C=C)c(C)c3CCC(=O)O)/C(CCC(=O)O)=C2C)NC1=O", "note": "[biliverdin]", "values": [{"measurement": "gel electrophoresis with zinc fluorescence; absorption spectra of purified holop", "value": "zinc fluorescence demonstrated that the biliverdin (BV) is covalently bound in both proteins"}]}
